Results as given in patent publication US20240174594A1, “4-ALKENYL AND 4-ALKYNYL PHENETHYLAMINE DERIVATIVES AND RELATED COMPOUNDS WITH MODIFIED DOM-LIKE ACTION” (priority 2022, published 2024).

Legend:
[1] = system: humans; settings: cited from earlier work
[2] = biological target: T1, 5-HT1A receptor (Homo sapiens, UniProt P08908); settings: literature and data on file; cited from earlier work
T1 sequence (P08908 1-422): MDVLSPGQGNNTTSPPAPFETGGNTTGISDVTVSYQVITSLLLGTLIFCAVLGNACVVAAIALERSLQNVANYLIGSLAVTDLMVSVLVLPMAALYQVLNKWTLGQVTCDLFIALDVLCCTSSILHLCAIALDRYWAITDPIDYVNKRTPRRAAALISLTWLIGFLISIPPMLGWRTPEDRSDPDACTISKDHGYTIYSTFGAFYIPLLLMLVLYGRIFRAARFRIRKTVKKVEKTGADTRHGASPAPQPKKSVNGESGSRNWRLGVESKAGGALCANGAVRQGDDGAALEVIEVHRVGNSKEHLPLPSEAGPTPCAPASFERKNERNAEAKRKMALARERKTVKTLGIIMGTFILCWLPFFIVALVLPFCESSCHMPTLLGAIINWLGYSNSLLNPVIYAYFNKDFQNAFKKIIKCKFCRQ

[3] = biological target: 5-HT2A receptor (Homo sapiens, UniProt P28223); settings: cited from earlier work
5-HT2A receptor, sequence (P28223 whole entry): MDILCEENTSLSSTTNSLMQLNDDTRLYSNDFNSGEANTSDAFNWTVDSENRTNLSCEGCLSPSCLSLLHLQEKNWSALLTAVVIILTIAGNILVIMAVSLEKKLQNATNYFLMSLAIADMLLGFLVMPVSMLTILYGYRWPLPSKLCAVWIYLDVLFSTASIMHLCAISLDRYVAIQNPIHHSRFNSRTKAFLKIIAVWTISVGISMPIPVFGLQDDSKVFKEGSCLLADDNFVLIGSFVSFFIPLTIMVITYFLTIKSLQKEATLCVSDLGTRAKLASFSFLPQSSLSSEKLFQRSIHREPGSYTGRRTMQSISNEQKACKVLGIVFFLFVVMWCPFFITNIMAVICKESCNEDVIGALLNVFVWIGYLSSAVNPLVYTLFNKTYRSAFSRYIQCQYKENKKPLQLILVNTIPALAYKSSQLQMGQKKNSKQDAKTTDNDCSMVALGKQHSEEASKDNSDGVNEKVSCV

[4] = biological target: T2, 5-HT transporter (SERT) (Homo sapiens, UniProt P31645); assay: interaction with the 5-HT transporter; settings: data on file
T2 sequence (P31645 whole entry, species assumed): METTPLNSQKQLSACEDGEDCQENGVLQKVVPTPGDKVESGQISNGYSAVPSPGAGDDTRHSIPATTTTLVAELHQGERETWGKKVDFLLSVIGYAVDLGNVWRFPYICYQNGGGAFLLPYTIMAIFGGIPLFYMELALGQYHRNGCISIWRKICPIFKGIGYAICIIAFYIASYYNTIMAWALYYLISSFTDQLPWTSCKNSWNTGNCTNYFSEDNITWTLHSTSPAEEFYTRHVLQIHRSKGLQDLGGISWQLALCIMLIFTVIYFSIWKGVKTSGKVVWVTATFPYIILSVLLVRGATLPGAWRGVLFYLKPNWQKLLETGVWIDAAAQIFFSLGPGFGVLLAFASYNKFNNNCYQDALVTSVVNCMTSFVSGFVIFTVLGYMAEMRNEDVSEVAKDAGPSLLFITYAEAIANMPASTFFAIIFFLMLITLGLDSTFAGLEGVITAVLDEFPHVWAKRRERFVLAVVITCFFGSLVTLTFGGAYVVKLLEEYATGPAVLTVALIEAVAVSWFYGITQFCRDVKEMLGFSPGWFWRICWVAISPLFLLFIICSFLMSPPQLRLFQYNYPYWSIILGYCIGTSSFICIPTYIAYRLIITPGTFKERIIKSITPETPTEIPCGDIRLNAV

[5] = biological target: D2 receptors (Homo sapiens, UniProt P14416); settings: literature and data on file; cited from earlier work
D2 receptors, sequence (P14416 whole entry): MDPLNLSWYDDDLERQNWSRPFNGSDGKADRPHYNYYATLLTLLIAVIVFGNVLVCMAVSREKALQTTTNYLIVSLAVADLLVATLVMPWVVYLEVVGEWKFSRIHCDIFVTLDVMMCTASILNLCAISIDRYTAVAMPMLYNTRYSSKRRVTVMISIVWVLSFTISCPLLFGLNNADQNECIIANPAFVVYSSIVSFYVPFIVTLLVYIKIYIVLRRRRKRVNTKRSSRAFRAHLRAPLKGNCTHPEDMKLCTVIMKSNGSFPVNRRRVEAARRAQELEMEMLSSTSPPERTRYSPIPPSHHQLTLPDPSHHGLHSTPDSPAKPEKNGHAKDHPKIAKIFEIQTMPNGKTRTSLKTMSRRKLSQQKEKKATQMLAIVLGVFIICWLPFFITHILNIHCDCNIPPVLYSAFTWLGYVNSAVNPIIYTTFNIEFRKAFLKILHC

[6] = biological target: T2, 5-HT transporter (SERT); settings: cited from earlier work

COc1cc(CCN)c(OC)cc1C [2C-D, 2,5-dimethoxy-4-methylphenethylamine]
duration of action / psychoactive effects [1]: 4 to 6 h | psychoactive dose in humans (full active doses / human potency) [1]: 20 to 60 mg

C#Cc1cc(OC)c(CCN)cc1OC.Cl [2C-YN, 2,5-Dimethoxy-4-ethynylphenethylamine hydrochloride]
duration of action / psychoactive effects [1]: 2 to 3 h

COc1cc(CC(C)N)c(OC)cc1C (centres unmarked) [DOM, 2,5-dimethoxy-4-methylamphetamine]
5-HT1A receptor affinity [2]: very low affinity | duration of action / psychoactive effects [1]: 14 to 20 h | psychoactive dose in humans (full active doses / human potency) [1]: 3 to 10 mg | psychoactive dose, off of baseline [1]: 1 mg | time to first subjective effects [1]: 30 min | time to full effects (onset of action) [1]: up to 2 hours | 5-HT2A receptor affinity [3]: high affinities | interaction with the SERT [4]: do not interact | D2 receptor affinity [5]: no affinity

CCN(CC)C(=O)[C@@H]1C=C2c3cccc4[nH]cc(c34)C[C@H]2N(C)C1 [LSD, lysergic acid diethylamide]
duration of action / psychoactive effects [1]: 8 to 12 h

CN(C)CCc1c[nH]c2cccc(O)c12 [Psilocin]
action at the SERT [6]: inhibits

COc1cc(CCN)cc(OC)c1OC [mescaline]
5-HT2A receptor affinity [3]: very weak | D2 receptor affinity [5]: no affinity

COc1cc(C)cc(OC)c1CC(C)N (centres unmarked) [ψ-DOM, 2,6-dimethoxy-4-methylamphetamine]
duration of action / psychoactive effects [1]: 6 to 8 h | psychoactive dose in humans (full active doses / human potency) [1]: 15 to 25 mg | dose relative to DOM ([1]; higher dose than DOM): 3- to 5 fold | 5-HT2A binding affinity in comparison to DOM [3]: approximately three-fold lower
